# In patent US20210221784A1, “COMPOUNDS AND COMPOSITIONS FOR THE TREATMENT OF PAIN” (Université de Strasbourg, priority 2018, published 2021):
# Where a name gives a salt, the structure may show the parent alone.
# Biological target: T1, hNPFFR1 (Homo sapiens, UniProt Q9GZQ6)
# T1 construct: expressed in transfected cells; membranes
# Test: Radioligand binding competition, membranes from CHO cells expressing hNPFFR1
# Conditions: 0.015 nM [D-Tyr1[125I], N-MePhe3]-NPFF, 1 hr at 25° C., read-out: NPFF1-R Ki
# Method: Competition experiments with membranes from CHO cells stably expressing hNPFFR1 and hNPFFR2 were performed essentially as described in Elhabazi, K., et al. Neuropharmacology, 2013. 75C, 164-171., Briefly, hNPFFR1 or hNPFFR2 membranes (5 to 10 μg of proteins) were incubated (1 hr at 25° C.; 0.25 mL total volume) with 0.015 nM [D-Tyr1[125I], N-MePhe3]-NPFF (Hartmann Analytic GmbH) in 50 mM HEPES (pH 7.4), 1 mM CaCl2, 1 mM MgCl2 and 0.1% bovine serum albumin. Non-specific binding was determined in the presence of 10 μM RFRP-3. Incubation was terminated by rapid filtration through a 96-well GF/B unifilter apparatus (Perkin Elmer Life and Analytical Sciences, Courtaboeuf, France). Unifilters were washed five times with binding buffer, then dried for 1 h at 65° C. After addition of 40 μL scintillation cocktail (Microscint-O, Perkin Elmer) per well, bound radioactivity was determined on a TopCount scintillation counter (Perkin Elmer).
# T1 sequence (Q9GZQ6 whole entry): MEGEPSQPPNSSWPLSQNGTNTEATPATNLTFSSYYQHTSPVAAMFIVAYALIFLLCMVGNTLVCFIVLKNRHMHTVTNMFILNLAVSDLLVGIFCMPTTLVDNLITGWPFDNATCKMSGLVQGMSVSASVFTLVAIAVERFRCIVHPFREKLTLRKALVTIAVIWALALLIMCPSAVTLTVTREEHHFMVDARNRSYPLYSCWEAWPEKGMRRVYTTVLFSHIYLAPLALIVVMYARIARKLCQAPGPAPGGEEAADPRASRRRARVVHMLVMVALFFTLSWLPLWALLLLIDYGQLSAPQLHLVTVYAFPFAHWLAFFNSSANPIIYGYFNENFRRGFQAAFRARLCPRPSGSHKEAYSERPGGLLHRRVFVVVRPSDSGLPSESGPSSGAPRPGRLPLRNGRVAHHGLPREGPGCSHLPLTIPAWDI
row,Ki,Structure (SMILES)
1,188 nM,"Nc1ccc(-c2ccccc2)c(N)n1 [Compound 1a, 3-phenylpyridine-2,6-diamine]"
2,34 nM,"Nc1ccc(-c2ccccc2OC(F)(F)F)c(N)n1 [Compound 2c, 3-(2-(trifluoromethoxy)phenyl) pyridine-2,6-diamine]"
3,1930 nM,"Nc1ccc(-c2cccnc2)c(N)n1 [Compound 3e, [3,3′-bipyridine]-2,6-diamine]"
4,5390 nM,"Nc1ccc(-c2ccncc2)c(N)n1 [Compound 3d, [3,4′-bipyridine]-2,6-diamine]"

# Biological target: T2, human NPFFR1 (hNPFFR1) receptor (Homo sapiens, UniProt Q9GZQ6)
# T2 construct: expressed in transfected cells; host or cells: HEK-293 T cells, transient co-transfection
# Test: Human NPFFR1 evaluation using BRET biosensors in HEK-293 T cells
# Type: cell-based
# Conditions: hNPFFR1 in HEK-293 T cells, stimulated by EC80 RFRP-3, read-out: IC50 of antagonist activity
# Method: Compounds of the present invention were tested successively for their agonist and antagonist activities on human NPFFR1 (hNPFFR1) receptor transiently over-expressed in HEK-293 T cells. Compounds exert agonist activity if, by themselves in absence of neuropeptide RFRP-3 (also named NPVF) they activate hNPFFR1; and they exert antagonist activity if they decrease the action of RFRP-3 on the receptor. The assay used to measure compound activity is based on BRET (Bioluminescence Resonance Energy Transfer) biosensors and is designed to monitor the plasma membrane translocation of protein that interacts with specific Ga subunit. The specific effector (luciferase tagged: BRET donor) recruited at the membrane will be in close proximity to a plasma membrane anchor (GFP tagged: BRET acceptor) to induce a BRET signal (Ramdan et al, 2006, Chapter 5, Current Protocols in Neuroscience).
# HEK-293 T cells are maintained in Dulbecco's Modified Eagle's Medium supplemented with 10% Foetal Calf Serum, 1% Penicillin/Streptomycin at 37° C./5% CO2. Cells are co-transfected using polyethylenimine (25 kDa linear) with four DNA plasmids encoding; hNPFFR1, GαoB, a Gi family specific intracellular effector fused to luciferase (BRET donor), a plasma membrane effector fused to GFP (BRET acceptor). After transfection, cells are cultured for 48 h at 37° C./5% CO2.
# Receptor activity is detected by changes in BRET signal.
# On the day of the assay, cells are detached using trypsin 0.05%, resuspended in assay buffer (1.8 mM CaCl2, 1 mM MgCl2, 2.7 mM KCl, 137 mM NaCl, 0.4 mM NaH2PO4, 5.5 mM D-Glucose, 11.9 mM NaHCO3, 25 mM Hepes) and seeded in 384 well plate at a density of 20,000 cells per well. Then, plates are equilibrated 3.5 hours at 37° C. before adding compounds.
# Compounds and luciferase substrate are added to the cells using an automated device (Freedom Evo®, Tecan) and BRET readings are collected on EnVision (PerkinElmer) with specific filters (410 nm BW 80 nm, 515 nm BW 30 nm).
# Agonist and antagonist activities of compounds are consecutively evaluated on the same cell plate. Agonist activity is first measured after 10 minutes incubation with compound alone on the cells. Then, cells are stimulated by an EC80 RFRP-3 concentration and luminescence is recorded for additional 10 minutes. EC80 RFRP-3 concentration is the concentration giving 80% of the maximal RFRP-3 response. Agonist or antagonist activities are evaluated in comparison to basal signals evoked by assay buffer or EC80 RFRP-3 alone, respectively.
# For IC50 determination, a dose-response test is performed using 20 concentrations (ranging over 6 logs) of each compound. Dose-response curves are fitted using the sigmoidal dose-response (variable slope) analysis in GraphPad Prism software (GraphPad Software) and IC50 of antagonist activity is calculated. Dose-response experiments are performed in duplicate, in two independent experiments.
# T2 sequence (Q9GZQ6 whole entry): as above
row,IC50,Structure (SMILES)
1,100 to 500 nM,"CCc1nc(N)ccc1-c1cccc(Cl)c1C [Compound 29, 5-(3-chloro-2-methyl-phenyl)-6-ethyl-pyridin-2-ylamine]"
2,> 1000 nM,"COc1cccc(OC(C)C)c1-c1ccc(N)nc1N [Compound 39, 3-(2-Isopropoxy-6-methoxy-phenyl)-pyridine-2,6-diamine]"
3,> 1000 nM,"Nc1ccc(-c2ccccc2)c(N)n1 [Compound 1a, 3-phenylpyridine-2,6-diamine]"
4,100 to 500 nM,"Nc1ccc(-c2cc(Cl)ccc2C2CC2)c(N)n1 [Compound 55, 3-(5-Chloro-2-cyclopropyl-phenyl)-pyridine-2,6-diamine]"
5,100 to 500 nM,"Nc1ccc(-c2ccccc2OC2CC2)c(N)n1 [Compound 48, 3-(2-Cyclopropoxy-phenyl)-pyridine-2,6-diamine]"
6,> 1000 nM,"COc1ccncc1-c1ccc(N)nc1N [Compound 88, 3-(4-methoxy-3-pyridyl)pyridine-2,6-diamine]"
7,100 to 500 nM,"CN(C)c1ccccc1-c1ccc(N)nc1N [Compound 61, 3-(2-Dimethylamino-phenyl)-pyridine-2,6-diamine]"
8,500 to 1000 nM,"Nc1ccc(-c2ccc(Cl)cc2OC2CCCC2)c(N)n1 [Compound 47, 3-(4-Chloro-2-cyclopentyloxy-phenyl)-pyridine-2,6-diamine]"
9,100 to 500 nM,"Nc1ccc(-c2ccccc2Oc2ccccc2)c(N)n1 [Compound 43, 3-(2-Phenoxy-phenyl)-pyridine-2,6-diamine]"
10,500 to 1000 nM,"Nc1ccc(-c2ccccc2OC(F)(F)F)c(N)n1 [Compound 2c, 3-(2-(trifluoromethoxy)phenyl) pyridine-2,6-diamine]"
11,< 100 nM,"Nc1ccc(-c2ccccc2C2CC2)c(N)n1 [Compound 42, 3-(2-Cyclopropyl-phenyl)-pyridine-2,6-diamine]"
12,100 to 500 nM,"Nc1ccc(-c2ccccc2Cc2ccccc2)c(N)n1 [Compound 44, 3-(2-Benzyl-phenyl)-pyridine-2,6-diamine]"

# Test system: not given
# Test: not given
# Conditions: not given
row,melting point,Structure (SMILES)
1,85 to 87 °C,"COc1ccccc1-c1ccc(N)nc1OC [Compound 35, 6-Methoxy-5-(2-methoxy-phenyl)-pyridin-2-ylamine]"
2,140 to 144 °C,"COc1ccccc1-c1cnc(N)cc1OC [Compound 20, 4-Methoxy-5-(2-methoxy-phenyl)-pyridin-2-ylamine]"
3,183 to 190 °C,"NCCOc1nc(N)ccc1-c1cccc(Cl)c1Cl (as salt: hydrochloride) [Compound 38, 6-(2-Amino-ethoxy)-5-(2,3-dichloro-phenyl)-pyridin-2-ylamine]"
4,107 to 112 °C,"Nc1cc(F)c(-c2cccc(Cl)c2Cl)cn1 [Compound 17, 5-(2,3-Dichloro-phenyl)-4-fluoro-pyridin-2-ylamine]"
5,65 to 70 °C,"COc1ccccc1-c1cnc(N)cc1F [Compound 18, 4-Fluoro-5-(2-methoxy-phenyl)-pyridin-2-ylamine]"
6,184 to 188 °C,"Nc1ccc(-c2cccnc2F)c(N)n1 [Compound 87, 3-(2-fluoro-3-pyridyl)pyridine-2,6-diamine]"
7,63 to 67 °C,"COc1ccccc1-c1cnc(N)c(C(F)(F)F)c1 [Compound 14, 5-(2-Methoxy-phenyl)-3-trifluoromethyl-pyridin-2-ylamine]"
8,155 to 159 °C,"Nc1ccc(-c2ccc(N3CCCCC3)nc2)c(N)n1 [Compound 79, 3-[6-(1-piperidyl)-3-pyridyl]pyridine-2,6-diamine]"
9,128 to 135 °C,"Cc1c(Cl)cccc1-c1cc(F)c(N)nc1N [Compound 66, 3-(3-Chloro-2-methyl-phenyl)-5-fluoro-pyridine-2,6-diamine]"
10,130 to 136 °C,"Nc1ncc(-c2cccc(Cl)c2Cl)cc1F [Compound 16, 5-(2,3-Dichloro-phenyl)-3-fluoro-pyridin-2-ylamine]"
11,178 to 182 °C,"CNc1ccc(-c2ccc(N)nc2N)cn1 [Compound 80, 3-[6-(methylamino)-3-pyridyl]pyridine-2,6-diamine]"
12,201 to 205 °C,"Nc1ccc(-c2ccc(N3CCOCC3)nc2)c(N)n1 [Compound 78, 3-(6-morpholino-3-pyridyl)pyridine-2,6-diamine]"
13,238 to 240 °C,COc1ccccc1-c1cnc(N)cc1OCC(F)(F)F.Cl
14,> 250 °C,Cl.Nc1cc(OCC(F)(F)F)c(-c2cccc(Cl)c2Cl)cn1
15,175 to 181 °C,CN(C)c1ccc(-c2ccc(N)nc2N)c2ccccc12.Cl
16,85 to 88 °C,"COc1ccccc1-c1cnc(N)cc1C [Compound 21, 5-(2-Methoxy-phenyl)-4-methyl-pyridin-2-ylamine]"
17,154 to 155 °C,"Nc1ccc(-c2cnc(N)c(C(F)(F)F)c2)c(N)n1 [Compound 83, 3-[6-amino-5-(trifluoromethyl)-3-pyridyl]pyridine-2,6-diamine]"
18,139 to 144 °C,"Nc1ccc(-c2cccc(Cl)c2Cl)c(F)n1 [Compound 33, 5-(2,3-Dichloro-phenyl)-6-fluoro-pyridin-2-ylamine]"
19,92 to 95 °C,"COc1ccccc1-c1cnc(N)c(C)c1 [Compound 13, 5-(2-Methoxy-phenyl)-3-methyl-pyridin-2-ylamine]"
20,165 to 170 °C,"Nc1ccc(-c2cccc(Cl)c2Cl)c(C(F)(F)F)n1 [Compound 34, 5-(2,3-Dichloro-phenyl)-6-trifluoromethyl-pyridin-2-ylamine]"
21,175 to 178 °C,"COc1ccccc1-c1ccc(N)nc1F [Compound 32, 6-Fluoro-5-(2-methoxy-phenyl)-pyridin-2-ylamine]"
22,218 to 224 °C,COc1ccccc1-c1cnc(N)cc1OCCN.Cl
23,220 to 240 °C,"Nc1ccc(-c2ccc(N)nc2N)cn1 [Compound 82, 3-(6-amino-3-pyridyl)pyridine-2,6-diamine]"
24,> 250 °C,COc1cc(N)ncc1-c1cccc(Cl)c1Cl.Cl
25,75 to 79 °C,"COc1ccccc1-c1cnc(N)c(F)c1 [Compound 15, 3-Fluoro-5-(2-methoxy-phenyl)-pyridin-2-ylamine]"
26,60 to 70 °C,"CC(=O)Nc1ccccc1-c1ccc(N)nc1N [Compound 62, N-[2-(2,6-Diamino-pyridin-3-yl)-phenyl]-acetamide]"
27,> 250 °C,"Cc1n[nH]c(C)c1-c1ccc(N)nc1N [Compound 90, 3-(3,5-dimethyl-1H-pyrazol-4-yl)pyridine-2,6-diamine]"
28,140 to 145 °C,"Cc1cc(N)nc(C)c1-c1cccc(Cl)c1Cl [Compound 28, 5-(2,3-Dichloro-phenyl)-4,6-dimethyl-pyridin-2-ylamine]"
29,197 to 203 °C,"COc1ccccc1-c1ccc(N)nc1OCCN [Compound 37, 6-(2-Amino-ethoxy)-5-(2-methoxy-phenyl)-pyridin-2-ylamine]"
